Test results from PubChem BioAssay (NCI).
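A five-concentration, 48-hour dose response in 96-well plates underlies each endpoint, interpolated linearly between surrounding concentrations. At the TGI there is no net growth.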

Legend:
Test in all cases: NCI anticancer screen, dose series, 48 h
786-0 renal = tested on: 786-0 renal
A549 NSCLC = tested on: A549 NSCLC
CAKI-1 renal = tested on: CAKI-1 renal
CCRF-CEM leukemia = tested on: CCRF-CEM leukemia
COLO 205 colon = tested on: COLO 205 colon
DU-145 prostate = tested on: DU-145 prostate
EKVX NSCLC = tested on: EKVX NSCLC
HCC-2998 colon = tested on: HCC-2998 colon
HCT-15 colon = tested on: HCT-15 colon
HL-60(TB) leukemia = tested on: HL-60(TB) leukemia
HOP-62 NSCLC = tested on: HOP-62 NSCLC
HT29 colon = tested on: HT29 colon
IGROV1 ovarian = tested on: IGROV1 ovarian
K-562 leukemia = tested on: K-562 leukemia
KM12 colon = tested on: KM12 colon
LOX IMVI melanoma = tested on: LOX IMVI melanoma
M14 melanoma = tested on: M14 melanoma
MALME-3M melanoma = tested on: MALME-3M melanoma
MCF7 breast = tested on: MCF7 breast
MDA-MB-231 breast = tested on: MDA-MB-231 breast
MDA-N = tested on: MDA-N
MOLT-4 leukemia = tested on: MOLT-4 leukemia
NCI-H23 lung = tested on: NCI-H23 lung
OVCAR-8 ovarian = tested on: OVCAR-8 ovarian
PC-3 prostate = tested on: PC-3 prostate
RPMI-8226 leukemia = tested on: RPMI-8226 leukemia
RXF 393 renal = tested on: RXF 393 renal
SF-268 CNS = tested on: SF-268 CNS
SF-295 CNS = tested on: SF-295 CNS
SK-MEL-28 melanoma = tested on: SK-MEL-28 melanoma
SK-MEL-5 melanoma = tested on: SK-MEL-5 melanoma
SK-OV-3 ovarian = tested on: SK-OV-3 ovarian
SN12C renal = tested on: SN12C renal
SNB-75 CNS = tested on: SNB-75 CNS
SR leukemia = tested on: SR leukemia
SW-620 colon = tested on: SW-620 colon
T-47D breast = tested on: T-47D breast
TK-10 renal = tested on: TK-10 renal
UACC-257 melanoma = tested on: UACC-257 melanoma
UACC-62 melanoma = tested on: UACC-62 melanoma
A498 renal = tested on: A498 renal
ACHN renal = tested on: ACHN renal
HCT-116 colon = tested on: HCT-116 colon
HOP-92 NSCLC = tested on: HOP-92 NSCLC
HS 578T breast = tested on: HS 578T breast
MDA-MB-435 = tested on: MDA-MB-435
NCI-H226 lung = tested on: NCI-H226 lung
NCI-H460 lung = tested on: NCI-H460 lung
NCI-H522 lung = tested on: NCI-H522 lung
NCI/ADR-RES ovarian = tested on: NCI/ADR-RES ovarian
OVCAR-3 ovarian = tested on: OVCAR-3 ovarian
OVCAR-4 ovarian = tested on: OVCAR-4 ovarian
OVCAR-5 ovarian = tested on: OVCAR-5 ovarian
SF-539 CNS = tested on: SF-539 CNS
SK-MEL-2 melanoma = tested on: SK-MEL-2 melanoma
SNB-19 CNS = tested on: SNB-19 CNS
U251 CNS = tested on: U251 CNS
UO-31 renal = tested on: UO-31 renal
BT-549 breast = tested on: BT-549 breast

CCOc1ccc(-c2nc(-c3oc4ccccc4c(=O)c3OC(C)=O)cs2)cc1
TGI (786-0 renal): > 10 µM | TGI (A549 NSCLC): > 10 µM | TGI (CAKI-1 renal): > 10 µM | TGI (CCRF-CEM leukemia): > 10 µM | TGI (COLO 205 colon): > 10 µM | TGI (DU-145 prostate): > 10 µM | TGI (EKVX NSCLC): > 10 µM | TGI (HCC-2998 colon): > 10 µM | TGI (HCT-15 colon): > 10 µM | TGI (HL-60(TB) leukemia): > 10 µM | TGI (HOP-62 NSCLC): > 10 µM | TGI (HT29 colon): > 10 µM | TGI (IGROV1 ovarian): > 10 µM | TGI (K-562 leukemia): > 10 µM | TGI (KM12 colon): > 10 µM | TGI (LOX IMVI melanoma): > 10 µM | TGI (M14 melanoma): > 10 µM | TGI (MALME-3M melanoma): > 10 µM | TGI (MCF7 breast): > 10 µM | TGI (MDA-MB-231 breast): > 10 µM | TGI (MDA-N): > 10 µM | TGI (MOLT-4 leukemia): > 10 µM | TGI (NCI-H23 lung): > 10 µM | TGI (OVCAR-8 ovarian): > 10 µM | TGI (PC-3 prostate): > 10 µM | TGI (RPMI-8226 leukemia): > 10 µM | TGI (RXF 393 renal): 7.21 µM | TGI (SF-268 CNS): > 10 µM | TGI (SF-295 CNS): > 10 µM | TGI (SK-MEL-28 melanoma): > 10 µM | TGI (SK-MEL-5 melanoma): > 10 µM | TGI (SK-OV-3 ovarian): > 10 µM | TGI (SN12C renal): > 10 µM | TGI (SNB-75 CNS): > 10 µM | TGI (SR leukemia): > 10 µM | TGI (SW-620 colon): > 10 µM | TGI (T-47D breast): > 10 µM | TGI (TK-10 renal): > 10 µM | TGI (UACC-257 melanoma): > 10 µM | TGI (UACC-62 melanoma): > 10 µM

N#C/C(=C\n1ccc(=O)[nH]c1=S)C(N)=O
TGI (786-0 renal): > 100 µM | TGI (A498 renal): > 100 µM | TGI (A549 NSCLC): > 100 µM | TGI (ACHN renal): > 100 µM | TGI (CAKI-1 renal): > 100 µM | TGI (CCRF-CEM leukemia): > 100 µM | TGI (COLO 205 colon): > 100 µM | TGI (DU-145 prostate): > 100 µM | TGI (EKVX NSCLC): > 100 µM | TGI (HCC-2998 colon): > 100 µM | TGI (HCT-116 colon): > 100 µM | TGI (HCT-15 colon): > 100 µM | TGI (HL-60(TB) leukemia): > 100 µM | TGI (HOP-62 NSCLC): > 100 µM | TGI (HOP-92 NSCLC): > 100 µM | TGI (HS 578T breast): > 100 µM | TGI (HT29 colon): > 100 µM | TGI (IGROV1 ovarian): > 100 µM | TGI (K-562 leukemia): > 100 µM | TGI (KM12 colon): > 100 µM | TGI (LOX IMVI melanoma): > 100 µM | TGI (M14 melanoma): > 100 µM | TGI (MALME-3M melanoma): > 100 µM | TGI (MCF7 breast): > 100 µM | TGI (MDA-MB-231 breast): > 100 µM | TGI (MDA-MB-435): > 100 µM | TGI (MDA-N): > 100 µM | TGI (MOLT-4 leukemia): > 100 µM | TGI (NCI-H226 lung): > 100 µM | TGI (NCI-H23 lung): > 100 µM | TGI (NCI-H460 lung): > 100 µM | TGI (NCI-H522 lung): > 100 µM | TGI (NCI/ADR-RES ovarian): > 100 µM | TGI (OVCAR-3 ovarian): 0.673 µM | TGI (OVCAR-4 ovarian): > 100 µM | TGI (OVCAR-5 ovarian): > 100 µM | TGI (OVCAR-8 ovarian): > 100 µM | TGI (PC-3 prostate): > 100 µM | TGI (RPMI-8226 leukemia): > 100 µM | TGI (RXF 393 renal): > 100 µM | TGI (SF-268 CNS): > 100 µM | TGI (SF-295 CNS): > 100 µM | TGI (SF-539 CNS): > 100 µM | TGI (SK-MEL-2 melanoma): > 100 µM | TGI (SK-MEL-28 melanoma): > 100 µM | TGI (SK-MEL-5 melanoma): > 100 µM | TGI (SK-OV-3 ovarian): > 100 µM | TGI (SN12C renal): > 100 µM | TGI (SNB-19 CNS): > 100 µM | TGI (SNB-75 CNS): > 100 µM | TGI (SR leukemia): > 100 µM | TGI (SW-620 colon): > 100 µM | TGI (T-47D breast): > 100 µM | TGI (U251 CNS): > 100 µM | TGI (UACC-257 melanoma): > 100 µM | TGI (UACC-62 melanoma): > 100 µM | TGI (UO-31 renal): > 100 µM

CC1CCOc2ccc(cc2)C=Nc2ccc(cc2)CCc2ccc(cc2)N=Cc2ccc(cc2)OCC1 (configuration not stated)
TGI (786-0 renal): > 100 µM | TGI (A498 renal): > 100 µM | TGI (A549 NSCLC): > 100 µM | TGI (ACHN renal): > 100 µM | TGI (BT-549 breast): > 100 µM | TGI (CAKI-1 renal): > 100 µM | TGI (CCRF-CEM leukemia): > 100 µM | TGI (COLO 205 colon): > 100 µM | TGI (DU-145 prostate): > 100 µM | TGI (EKVX NSCLC): > 100 µM | TGI (HCC-2998 colon): > 100 µM | TGI (HCT-116 colon): > 100 µM | TGI (HCT-15 colon): > 100 µM | TGI (HOP-62 NSCLC): > 100 µM | TGI (HOP-92 NSCLC): > 100 µM | TGI (HS 578T breast): > 100 µM | TGI (HT29 colon): > 100 µM | TGI (IGROV1 ovarian): > 100 µM | TGI (K-562 leukemia): > 100 µM | TGI (KM12 colon): > 100 µM | TGI (LOX IMVI melanoma): > 100 µM | TGI (M14 melanoma): > 100 µM | TGI (MALME-3M melanoma): > 100 µM | TGI (MCF7 breast): > 100 µM | TGI (MDA-MB-231 breast): > 100 µM | TGI (MDA-MB-435): > 100 µM | TGI (MDA-N): > 100 µM | TGI (MOLT-4 leukemia): > 100 µM | TGI (NCI-H226 lung): > 100 µM | TGI (NCI-H23 lung): > 100 µM | TGI (NCI-H460 lung): > 100 µM | TGI (NCI-H522 lung): > 100 µM | TGI (NCI/ADR-RES ovarian): > 100 µM | TGI (OVCAR-3 ovarian): > 100 µM | TGI (OVCAR-4 ovarian): > 100 µM | TGI (OVCAR-5 ovarian): > 100 µM | TGI (OVCAR-8 ovarian): > 100 µM | TGI (PC-3 prostate): > 100 µM | TGI (RPMI-8226 leukemia): > 100 µM | TGI (RXF 393 renal): > 100 µM | TGI (SF-268 CNS): > 100 µM | TGI (SF-295 CNS): > 100 µM | TGI (SF-539 CNS): > 100 µM | TGI (SK-MEL-2 melanoma): > 100 µM | TGI (SK-MEL-28 melanoma): > 100 µM | TGI (SK-MEL-5 melanoma): > 100 µM | TGI (SN12C renal): > 100 µM | TGI (SNB-19 CNS): > 100 µM | TGI (SNB-75 CNS): 77.3 µM | TGI (SR leukemia): > 100 µM | TGI (SW-620 colon): > 100 µM | TGI (U251 CNS): > 100 µM | TGI (UACC-257 melanoma): > 100 µM | TGI (UACC-62 melanoma): > 100 µM | TGI (UO-31 renal): > 100 µM
